Laboratory results reported in article PMC8213057, “Targeting ALK2: An Open Science Approach to Developing Therapeutics for the Treatment of Diffuse Intrinsic Pontine Glioma” (Journal of Medicinal Chemistry, 2020).

Key:
PAK6 = PAK6 (Homo sapiens, UniProt Q9NQU5); assay: biochemical; conditions: read-out: % enzyme activity, 1 μM; Run 1, Run 2
JAK3 = biological target: T1, JAK3 (Homo sapiens, UniProt P52333); conditions: 1 μM; Run 1, Run 2
T1 sequence (P52333 1-1124): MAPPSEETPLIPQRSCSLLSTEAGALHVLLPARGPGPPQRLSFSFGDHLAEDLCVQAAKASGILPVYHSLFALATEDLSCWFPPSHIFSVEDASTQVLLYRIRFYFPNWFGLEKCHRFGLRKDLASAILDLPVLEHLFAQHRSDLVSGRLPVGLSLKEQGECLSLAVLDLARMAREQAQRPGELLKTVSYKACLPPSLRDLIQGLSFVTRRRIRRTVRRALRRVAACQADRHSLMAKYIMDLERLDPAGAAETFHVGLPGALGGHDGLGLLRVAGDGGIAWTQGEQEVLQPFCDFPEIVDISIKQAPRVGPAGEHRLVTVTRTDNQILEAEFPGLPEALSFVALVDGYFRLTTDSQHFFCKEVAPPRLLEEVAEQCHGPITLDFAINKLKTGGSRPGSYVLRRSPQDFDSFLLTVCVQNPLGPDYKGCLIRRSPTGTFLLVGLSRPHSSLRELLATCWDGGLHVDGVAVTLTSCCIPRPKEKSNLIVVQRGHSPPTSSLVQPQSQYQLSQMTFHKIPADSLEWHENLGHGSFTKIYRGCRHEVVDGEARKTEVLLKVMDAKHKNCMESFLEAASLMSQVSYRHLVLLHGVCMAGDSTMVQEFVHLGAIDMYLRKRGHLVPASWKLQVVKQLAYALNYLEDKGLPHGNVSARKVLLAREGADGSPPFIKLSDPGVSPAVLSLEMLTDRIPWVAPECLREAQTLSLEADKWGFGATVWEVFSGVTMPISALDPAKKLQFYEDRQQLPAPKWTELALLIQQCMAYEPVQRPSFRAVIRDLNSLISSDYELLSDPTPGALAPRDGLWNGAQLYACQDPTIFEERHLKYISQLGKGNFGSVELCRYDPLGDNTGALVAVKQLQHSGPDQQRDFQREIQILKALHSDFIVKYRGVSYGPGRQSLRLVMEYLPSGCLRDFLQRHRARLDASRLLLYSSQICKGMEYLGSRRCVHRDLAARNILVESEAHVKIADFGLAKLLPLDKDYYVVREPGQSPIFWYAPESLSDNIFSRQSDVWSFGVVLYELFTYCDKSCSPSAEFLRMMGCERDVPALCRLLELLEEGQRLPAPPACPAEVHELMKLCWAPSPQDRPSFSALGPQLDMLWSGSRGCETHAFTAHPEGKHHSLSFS

TXK = biological target: T2, TXK (Homo sapiens, UniProt P42681); conditions: 1 μM; Run 1, Run 2
T2 sequence (P42681 1-527): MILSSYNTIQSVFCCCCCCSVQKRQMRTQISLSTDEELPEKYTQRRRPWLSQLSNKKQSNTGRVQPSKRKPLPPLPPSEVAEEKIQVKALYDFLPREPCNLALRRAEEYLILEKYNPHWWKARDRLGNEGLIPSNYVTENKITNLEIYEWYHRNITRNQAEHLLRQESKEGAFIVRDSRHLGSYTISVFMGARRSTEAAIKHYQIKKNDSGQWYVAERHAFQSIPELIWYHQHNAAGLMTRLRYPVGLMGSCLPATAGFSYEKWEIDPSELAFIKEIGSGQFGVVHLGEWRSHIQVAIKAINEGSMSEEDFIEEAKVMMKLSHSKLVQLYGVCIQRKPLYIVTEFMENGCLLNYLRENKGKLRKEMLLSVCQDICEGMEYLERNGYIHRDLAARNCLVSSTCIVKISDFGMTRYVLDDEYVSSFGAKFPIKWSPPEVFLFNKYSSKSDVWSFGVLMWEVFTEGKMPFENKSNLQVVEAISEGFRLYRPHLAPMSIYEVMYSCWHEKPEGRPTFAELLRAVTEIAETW

TRKA = TRKA (Homo sapiens, UniProt P04629); assay: biochemical; conditions: read-out: % enzyme activity, 1 μM; Run 1, Run 2
Sequence of TRKA (P04629 33-796): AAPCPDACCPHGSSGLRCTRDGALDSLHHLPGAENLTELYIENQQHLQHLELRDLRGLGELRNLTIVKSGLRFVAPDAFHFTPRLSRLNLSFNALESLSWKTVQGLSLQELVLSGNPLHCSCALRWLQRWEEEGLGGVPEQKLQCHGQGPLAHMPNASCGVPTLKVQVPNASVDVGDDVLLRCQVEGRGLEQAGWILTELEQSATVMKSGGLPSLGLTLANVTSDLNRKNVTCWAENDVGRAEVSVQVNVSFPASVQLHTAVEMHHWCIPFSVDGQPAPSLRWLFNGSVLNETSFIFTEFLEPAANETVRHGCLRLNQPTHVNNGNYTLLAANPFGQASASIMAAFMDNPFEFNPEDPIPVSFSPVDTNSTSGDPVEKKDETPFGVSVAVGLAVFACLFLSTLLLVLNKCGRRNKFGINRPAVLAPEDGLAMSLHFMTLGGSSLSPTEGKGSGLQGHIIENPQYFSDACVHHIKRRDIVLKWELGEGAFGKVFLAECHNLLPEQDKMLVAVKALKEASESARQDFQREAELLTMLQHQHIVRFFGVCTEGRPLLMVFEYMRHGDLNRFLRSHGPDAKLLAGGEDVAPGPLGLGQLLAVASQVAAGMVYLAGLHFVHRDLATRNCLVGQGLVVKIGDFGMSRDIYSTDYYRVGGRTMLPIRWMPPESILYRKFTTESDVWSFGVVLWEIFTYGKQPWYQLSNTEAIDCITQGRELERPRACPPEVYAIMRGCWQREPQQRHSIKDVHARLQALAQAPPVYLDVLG

CDK3/cyclin E2 = CDK3/cyclin E2 (Homo sapiens, UniProt Q00526); assay: biochemical; conditions: read-out: % enzyme activity, 1 μM; Run 1, Run 2
Sequence of CDK3/cyclin E2 (Q00526 whole entry): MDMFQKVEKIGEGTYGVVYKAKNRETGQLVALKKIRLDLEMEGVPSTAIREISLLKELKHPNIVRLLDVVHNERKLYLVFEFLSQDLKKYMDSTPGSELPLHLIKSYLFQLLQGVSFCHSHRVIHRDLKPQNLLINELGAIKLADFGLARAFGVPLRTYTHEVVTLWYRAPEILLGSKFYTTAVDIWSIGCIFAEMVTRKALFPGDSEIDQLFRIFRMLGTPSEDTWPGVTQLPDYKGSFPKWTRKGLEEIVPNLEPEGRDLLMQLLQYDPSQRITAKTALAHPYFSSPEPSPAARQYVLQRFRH
Sequence of CDK3/cyclin E2 (O96020 whole entry partner): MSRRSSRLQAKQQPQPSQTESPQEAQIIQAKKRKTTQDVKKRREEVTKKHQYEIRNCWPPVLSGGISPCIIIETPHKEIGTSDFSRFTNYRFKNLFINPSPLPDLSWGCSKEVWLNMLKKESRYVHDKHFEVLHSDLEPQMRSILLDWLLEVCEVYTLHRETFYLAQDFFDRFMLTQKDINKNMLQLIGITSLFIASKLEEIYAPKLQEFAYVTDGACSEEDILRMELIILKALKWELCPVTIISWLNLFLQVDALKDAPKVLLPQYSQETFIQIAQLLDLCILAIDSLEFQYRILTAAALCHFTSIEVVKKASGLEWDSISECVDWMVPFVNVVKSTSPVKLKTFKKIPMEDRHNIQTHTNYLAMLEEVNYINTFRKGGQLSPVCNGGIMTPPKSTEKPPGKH

CK1G3 [1] = biological target: T3, CK1G3 (Homo sapiens, UniProt Q9Y6M4); conditions: 1 μM; Run 1, Run 2
T3 sequence (Q9Y6M4 whole entry): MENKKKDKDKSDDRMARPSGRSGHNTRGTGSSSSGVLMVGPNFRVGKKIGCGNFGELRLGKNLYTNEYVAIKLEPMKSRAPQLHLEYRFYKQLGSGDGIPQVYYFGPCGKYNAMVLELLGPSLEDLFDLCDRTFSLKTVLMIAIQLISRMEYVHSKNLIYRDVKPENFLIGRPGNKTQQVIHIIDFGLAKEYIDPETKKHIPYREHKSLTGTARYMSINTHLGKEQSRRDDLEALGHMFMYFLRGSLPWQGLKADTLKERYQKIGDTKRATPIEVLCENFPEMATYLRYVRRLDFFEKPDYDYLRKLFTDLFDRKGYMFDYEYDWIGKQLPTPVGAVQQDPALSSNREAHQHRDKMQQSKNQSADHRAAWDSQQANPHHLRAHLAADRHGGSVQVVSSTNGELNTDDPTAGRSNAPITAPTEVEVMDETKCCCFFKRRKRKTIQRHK

SIK1 = SIK1 (Homo sapiens, UniProt P57059); conditions: 1 μM; Run 1, Run 2
Sequence of SIK1 (P57059 whole entry): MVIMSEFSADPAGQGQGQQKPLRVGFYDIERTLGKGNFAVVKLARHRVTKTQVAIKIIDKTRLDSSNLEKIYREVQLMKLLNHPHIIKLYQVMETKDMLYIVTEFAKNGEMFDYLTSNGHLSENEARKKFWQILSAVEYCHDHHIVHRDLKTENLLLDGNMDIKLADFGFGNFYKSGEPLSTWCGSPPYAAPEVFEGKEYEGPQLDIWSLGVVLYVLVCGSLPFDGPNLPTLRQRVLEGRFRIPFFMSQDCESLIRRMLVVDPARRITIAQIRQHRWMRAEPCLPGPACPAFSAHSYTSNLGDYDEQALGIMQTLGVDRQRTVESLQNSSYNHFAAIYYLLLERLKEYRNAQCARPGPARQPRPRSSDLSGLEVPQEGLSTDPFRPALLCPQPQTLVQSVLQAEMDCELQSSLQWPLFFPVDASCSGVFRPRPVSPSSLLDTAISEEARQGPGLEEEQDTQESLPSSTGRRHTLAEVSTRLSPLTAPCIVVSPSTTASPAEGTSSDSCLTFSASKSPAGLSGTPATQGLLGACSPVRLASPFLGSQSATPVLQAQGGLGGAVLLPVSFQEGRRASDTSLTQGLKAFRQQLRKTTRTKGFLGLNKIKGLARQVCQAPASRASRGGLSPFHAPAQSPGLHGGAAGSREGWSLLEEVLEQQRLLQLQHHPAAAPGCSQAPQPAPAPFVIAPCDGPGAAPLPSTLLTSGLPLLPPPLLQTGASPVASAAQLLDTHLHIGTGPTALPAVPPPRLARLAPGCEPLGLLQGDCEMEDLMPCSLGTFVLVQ

MKK6 = biological target: T4, MKK6 (Homo sapiens, UniProt P52564); conditions: 1 μM; Run 1, Run 2
T4 sequence (P52564 1-334): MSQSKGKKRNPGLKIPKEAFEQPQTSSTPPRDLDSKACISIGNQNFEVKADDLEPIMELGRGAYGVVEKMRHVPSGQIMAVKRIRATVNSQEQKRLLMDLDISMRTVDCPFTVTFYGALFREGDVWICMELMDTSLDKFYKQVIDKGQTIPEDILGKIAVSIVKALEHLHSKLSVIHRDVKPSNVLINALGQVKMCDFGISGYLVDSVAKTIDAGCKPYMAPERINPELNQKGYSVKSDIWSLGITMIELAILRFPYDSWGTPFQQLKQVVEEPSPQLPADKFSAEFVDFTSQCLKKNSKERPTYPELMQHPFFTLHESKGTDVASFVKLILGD

TYK2 = TYK2 (Homo sapiens, UniProt P29597); assay: biochemical; conditions: read-out: % enzyme activity, 1 μM; Run 1, Run 2
Sequence of TYK2 (P29597 whole entry, species assumed): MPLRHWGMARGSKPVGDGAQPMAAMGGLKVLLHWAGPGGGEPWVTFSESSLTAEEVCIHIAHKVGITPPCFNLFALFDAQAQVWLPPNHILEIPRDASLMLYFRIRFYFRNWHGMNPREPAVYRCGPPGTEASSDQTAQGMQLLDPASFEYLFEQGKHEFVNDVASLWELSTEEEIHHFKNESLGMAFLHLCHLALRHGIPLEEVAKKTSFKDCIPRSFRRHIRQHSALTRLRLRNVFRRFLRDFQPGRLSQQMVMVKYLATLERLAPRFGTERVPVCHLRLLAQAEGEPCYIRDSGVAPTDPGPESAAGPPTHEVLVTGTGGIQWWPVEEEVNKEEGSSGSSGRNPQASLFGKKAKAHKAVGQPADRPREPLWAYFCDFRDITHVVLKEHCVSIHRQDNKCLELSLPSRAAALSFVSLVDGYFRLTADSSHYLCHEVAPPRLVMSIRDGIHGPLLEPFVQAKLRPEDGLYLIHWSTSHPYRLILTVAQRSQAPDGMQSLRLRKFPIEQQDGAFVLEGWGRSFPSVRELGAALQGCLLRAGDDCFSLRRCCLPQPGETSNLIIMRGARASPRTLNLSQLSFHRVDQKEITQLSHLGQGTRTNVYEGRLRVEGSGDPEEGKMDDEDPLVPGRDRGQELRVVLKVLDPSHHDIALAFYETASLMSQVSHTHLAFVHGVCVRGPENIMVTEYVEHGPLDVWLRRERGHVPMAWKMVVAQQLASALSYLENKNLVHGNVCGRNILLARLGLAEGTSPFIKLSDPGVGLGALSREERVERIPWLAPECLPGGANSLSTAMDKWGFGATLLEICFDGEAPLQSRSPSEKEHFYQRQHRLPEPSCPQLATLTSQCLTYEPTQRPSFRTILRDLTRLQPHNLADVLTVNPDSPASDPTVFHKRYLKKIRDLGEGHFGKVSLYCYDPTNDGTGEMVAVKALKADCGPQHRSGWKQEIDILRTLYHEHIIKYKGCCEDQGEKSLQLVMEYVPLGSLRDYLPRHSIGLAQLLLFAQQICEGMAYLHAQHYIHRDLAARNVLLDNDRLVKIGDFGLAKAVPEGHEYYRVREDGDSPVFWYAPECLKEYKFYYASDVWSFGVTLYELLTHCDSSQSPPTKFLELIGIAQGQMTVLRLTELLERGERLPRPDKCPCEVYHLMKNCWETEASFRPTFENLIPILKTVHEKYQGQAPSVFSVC

LIMK1 = LIMK1 (Homo sapiens, UniProt P53667); assay: biochemical; conditions: read-out: % enzyme activity, 1 μM; Run 1, Run 2
MEK5 = biological target: T5, MEK5 (Homo sapiens, UniProt Q13163); conditions: 1 μM; Run 1, Run 2
T5 sequence (Q13163 1-448): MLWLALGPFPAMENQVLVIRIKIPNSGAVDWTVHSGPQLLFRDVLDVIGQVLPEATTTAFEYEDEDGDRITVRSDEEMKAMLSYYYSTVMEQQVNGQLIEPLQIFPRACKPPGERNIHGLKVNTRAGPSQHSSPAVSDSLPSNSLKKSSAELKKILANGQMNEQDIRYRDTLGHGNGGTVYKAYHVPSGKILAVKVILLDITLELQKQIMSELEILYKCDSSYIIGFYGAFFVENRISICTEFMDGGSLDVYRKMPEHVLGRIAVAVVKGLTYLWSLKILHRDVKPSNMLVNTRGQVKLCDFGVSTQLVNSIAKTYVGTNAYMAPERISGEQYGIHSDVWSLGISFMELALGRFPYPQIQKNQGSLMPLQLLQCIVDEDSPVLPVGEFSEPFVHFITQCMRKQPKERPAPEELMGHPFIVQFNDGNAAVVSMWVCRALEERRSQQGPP

CK1G3 [2] = biological target: T3, CK1G3; assay: biochemical; conditions: read-out: % enzyme activity, 1 μM; Run 1, Run 2

Sequence of PAK6 (Q9NQU5 whole entry): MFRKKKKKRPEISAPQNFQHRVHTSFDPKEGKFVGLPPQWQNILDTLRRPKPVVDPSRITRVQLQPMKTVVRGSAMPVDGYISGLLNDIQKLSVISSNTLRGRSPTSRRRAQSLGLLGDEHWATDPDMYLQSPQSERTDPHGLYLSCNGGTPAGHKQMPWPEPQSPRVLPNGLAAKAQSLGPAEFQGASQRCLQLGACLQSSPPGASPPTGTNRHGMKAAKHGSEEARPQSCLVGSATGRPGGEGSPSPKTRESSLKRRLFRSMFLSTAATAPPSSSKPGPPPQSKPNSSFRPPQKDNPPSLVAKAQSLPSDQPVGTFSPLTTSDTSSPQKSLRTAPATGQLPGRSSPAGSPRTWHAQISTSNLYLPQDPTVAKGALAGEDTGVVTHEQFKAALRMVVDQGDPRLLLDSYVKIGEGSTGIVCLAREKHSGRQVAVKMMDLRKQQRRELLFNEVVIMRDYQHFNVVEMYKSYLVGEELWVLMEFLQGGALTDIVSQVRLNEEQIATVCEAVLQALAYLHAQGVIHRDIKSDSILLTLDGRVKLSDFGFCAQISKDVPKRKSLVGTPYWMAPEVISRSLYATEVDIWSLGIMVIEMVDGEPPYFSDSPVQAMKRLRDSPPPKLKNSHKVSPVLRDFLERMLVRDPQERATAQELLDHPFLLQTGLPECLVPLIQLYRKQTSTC

`COc1cc(-c2cncc(-c3ccc(N4CCN(C)CC4)cc3)c2C)cc(F)c1C(N)=O` [Compound 26a, 2-Fluoro-6-methoxy-4-(4-methyl-5-(4-(4-methylpiperazin-1-yl)phenyl)pyridin-3-yl)benzamide] was tested, and the remaining activity at 1 µM (PAK6) was 102%, the “% enzyme activity” value (JAK3) was 102.92% and the “% enzyme activity” value (TXK) was 100.80%. For the same compound, the remaining activity at 1 µM (TRKA) was 91.8%, the remaining activity at 1 µM (CDK3/cyclin E2) was 89.5% and the “% enzyme activity” value (CK1G3 [1]) was 64.87%. For the same compound, the “% enzyme activity” value (SIK1) was 82.71%, the “% enzyme activity” value (MKK6) was 80.71% and the remaining activity at 1 µM (TYK2) was 92.6%. For the same compound, the remaining activity at 1 µM (LIMK1) was 65.1%, the “% enzyme activity” value (MEK5) was 85.95% and the remaining activity at 1 µM (CK1G3 [2]) was 65.9%.

In the case of `COc1cc(-c2cncc(-c3ccc(N4C[C@@H](C)N(C)[C@@H](C)C4)cc3)c2C)cc(F)c1C(N)=O` [Compound 26c, 2-Fluoro-6-methoxy-4-(4-methyl-5-(4-((3R,5S)-3,4,5-trimethylpiperazin-1-yl)phenyl)pyridin-3-yl)benzamide], the remaining activity at 1 µM (PAK6) is reported as 96.3%, the “% enzyme activity” value (JAK3) is reported as 99.31% and the “% enzyme activity” value (TXK) is reported as 95.85%. The remaining activity at 1 µM (TRKA) was 95.2%, the remaining activity at 1 µM (CDK3/cyclin E2) was 86.2% and the “% enzyme activity” value (CK1G3 [1]) was 77.64%. For the same compound, the “% enzyme activity” value (SIK1) was 91.60%, the “% enzyme activity” value (MKK6) was 79.33% and the remaining activity at 1 µM (TYK2) was 103%. The remaining activity at 1 µM (LIMK1) was 74.2%, the “% enzyme activity” value (MEK5) was 92.97% and the remaining activity at 1 µM (CK1G3 [2]) was 78.8%.
